Our source for the IC50 values is the supplement of paper PMC3493320.

pIC50: −log10 of the molar value. Bounds are passed on as bounds.

This assay relates to NCI-H295R. Description: IC50 (antiproliferative, ATP content). Conditions: 48 h. The method in brief: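 Following overnight culture of adrenocortical carcinoma cells (1500 per well) in 1536-well plates with serum-free ITS-supplemented DMEM, library compounds were pin-transferred at 8 final concentrations from 0.6 nM to 46 µM. Incubation lasted 48 h at 37 °C, 5% CO2, and the CellTiter-Glo signal was read after 20 min at room temperature. Data were fitted with a four-parameter logistic model. Each IC50 came from that fit after normalisation to vehicle and positive-control wells, and compounds without a concentration response were reported as above the top dose.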
Consider `Cc1nc2ccc(CN(C)c3ccc(C(=O)N[C@@H](CCC(=O)O)C(=O)O)s3)cc2c(=O)[nH]1`, for which the pIC50 (usually −log10 of the IC50, conventionally taken in molar units) was less than 4.34.
In turn, `COc1cc2nc(N(C)CCCNC(=O)C3CCCO3)nc(N)c2cc1OC.Cl` (stereo not drawn) gave a pIC50 of less than 4.34.
In the case of `C[C@](N)(Cc1ccc(O)cc1)C(=O)O`, the pIC50 was less than 4.34.
For `CN(C)CCN(Cc1cccs1)c1ccccn1.Cl` the value was less than 4.34; for `CC(C)Cc1ccc([C@@H](C)C(=O)NS(C)(=O)=O)cc1`, less than 4.34.
As for `O=C(OC(C)C)/C(C(OC(C)C)=O)=C1SC=CS/1`, the pIC50 was less than 4.34.
Consider `CNC(=O)[C@H](Cc1c[nH]c2ccccc12)NC(=O)[C@@H](CC(=O)NO)CC(C)C`, for which the pIC50 is less than 4.34.
On to `S=C(S)N1CCNCC1`, for which the pIC50 was less than 4.34.
For `CN(C)c1ccc(O)c2c1C[C@H]1C[C@H]3[C@H](N(C)C)C(O)=C(C(N)=O)C(=O)[C@@]3(O)C(O)=C1C2=O.Cl` the value was less than 4.34; for `COC(=O)C(CN)c1c[nH]c2ccc(OC)cc12.Cl` (stereo not drawn), less than 4.34.
To `S=C=Nc1ccc(N=C=S)cc1` belongs less than 4.34.
For the compound `O=C([O-])CCCc1ccccc1.[Na+]`, the pIC50 is less than 4.34.
For `CC1(C)S[C@@H]2[C@H](NC(=O)C(C(=O)[O-])c3ccccc3)C(=O)N2[C@H]1C(=O)[O-].[Na+].[Na+]` (stereo partly drawn) the value was less than 4.34.
`CO/N=C(\C(=O)N[C@@H]1C(=O)N2C(C(=O)O)=C(C[N+]3(C)CCCC3)CS[C@H]12)c1csc(N)n1.Cl.O.[Cl-]` gave a negative logarithm of the IC50 (pIC50) of less than 4.34.
For `CCn1cc(C(=O)O)c(=O)c2cc(F)c(N3CCN(C)CC3)cc21.CS(=O)(=O)O` the value was less than 4.34; for `CCN(CC)CCNC(=O)c1cc(Br)c(N)cc1OC`, less than 4.34.
`O=c1[nH]c(=O)n([C@H]2C[C@H](O)[C@@H](CO)O2)cc1I` gave a pIC50 of less than 4.34.
Turning to `CN(C)CCn1nnnc1SCC1=C(C(=O)O)N2C(=O)[C@@H](NC(=O)Cc3csc(N)n3)[C@H]2SC1.Cl.Cl`, the pIC50 was less than 4.34.
To `CC1CC(OC(=O)C(O)c2ccccc2)CC(C)(C)C1` (stereo not drawn) belongs less than 4.34; to `CC(C)c1ccc2oc3nc(N)c(C(=O)O)cc3c(=O)c2c1`, less than 4.34.
For `CC(=O)Nc1ncc([N+](=O)[O-])s1` the value was less than 4.34; for `CN(c1nccc(=O)[nH]1)C1CCN(c2nc3ccccc3n2Cc2ccc(F)cc2)CC1`, less than 4.34; for `CC(=O)Nc1ccc(OC(C)=O)cc1`, less than 4.34.
To `O=C(O)c1cccc(-c2noc(-c3ccccc3F)n2)c1` belongs less than 4.34.
`O=[C@@](OCCl)[C@](CC2)(OC(OCC)=O)[C@]1(C)[C@]2([H])[C@@](CCC3=CC4=O)([H])[C@]([C@](C)3C=C4)([H])[C@@H](O)C1` gave a pIC50 of less than 4.34.
For `CO/N=C(\C(=O)N[C@@H]1C(=O)N2C(C(=O)[O-])=C(CSc3nc(=O)c([O-])nn3C)CS[C@H]12)c1csc(N)n1.O.O.O.[Na+].[Na+]` the value was less than 4.34; for `CCCCc1nc(Cl)c(CO)n1Cc1ccc(-c2ccccc2-c2nnn[nH]2)cc1`, less than 4.34; for `COc1ccc2c3c1O[C@H]1C[C@@H](O)C=C[C@@]31CCN(C)C2`, less than 4.34.
To `CCc1c(C)[nH]c2c1C(=O)C(CN1CCOCC1)CC2` (stereo not drawn) belongs less than 4.34; to `Cc1onc(-c2ccccc2Cl)c1C(=O)N[C@@H]1C(=O)N2[C@@H]1SC(C)(C)[C@@H]2C(=O)[O-].[Na+]`, less than 4.34.
Turning to `CCC(=O)c1ccc2c(c1)N(CCCN(C)C)c1ccccc1S2.Cl`, the pIC50 is less than 4.34.
For `CCOc1cc(N)c(Cl)cc1C(=O)NCC1CN(Cc2ccc(F)cc2)CCO1.O=C(O)CC(O)(CC(=O)O)C(=O)O` (stereo not drawn) the value was less than 4.34.
For `COc1ccc(CC2c3cc(OC)c(OC)cc3CC[N+]2(C)CCC(=O)OCCCCCOC(=O)CC[N+]2(C)CCc3cc(OC)c(OC)cc3C2Cc2ccc(OC)c(OC)c2)cc1OC.O=S(=O)([O-])c1ccccc1.O=S(=O)([O-])c1ccccc1` (stereo not drawn) the value was less than 4.34.
The compound `NCC(O)c1ccc(O)cc1` (stereo not drawn) gave a pIC50 of less than 4.34.
Regarding `Nc1ccc([As](=O)(O)O)cc1`, the pIC50 is less than 4.34.
In the case of `O=C([O-])c1cc(=O)c2c(OCC(O)COc3cccc4oc(C(=O)[O-])cc(=O)c34)cccc2o1.[Na+].[Na+]`, the pIC50 was less than 4.34.
Compound `O[C@@H]1CO[C@H]2[C@@H]1OC[C@@H]2O` showed a pIC50 of less than 4.34.
In the case of `O=C(O)Cc1ccc(-c2ccccc2)cc1`, the pIC50 is less than 4.34.
For `[O-][C@@]([C@@]13[C@@]([C@]2([H])OC(C)(C)OC[C@@]([H])2O3)([H])OC(C)(C)O1)=O.[Na+]` the value was less than 4.34; for `Oc1ccc(Cl)cc1Cc1ccccc1`, less than 4.34; for `CC(O)COc1ccccc1` (stereo not drawn), less than 4.34.
For the compound `Cl.O=C(NC1CCN(CCc2c[nH]c3ccccc23)CC1)c1ccccc1`, the pIC50 was less than 4.34.
The compound `c13c(C(\C(=C/N1C2CC2)C(O)=O)=O)c(c(c(c3F)N4C[C@@H](N[C@@H](C4)C)C)F)N` had a pIC50 of less than 4.34.
The compound `CC(C)NC[C@@H](O)COc1ccc(CC(N)=O)cc1` gave a pIC50 of less than 4.34.
For `CC1CCCCN1CCCOC(=O)c1ccccc1.Cl` (stereo not drawn) the value was less than 4.34; for `CCCCCCCCCC(=O)O[C@H]1CC[C@H]2[C@@H]3CCC4=CC(=O)CC[C@]4(C)[C@H]3CC[C@]12C`, less than 4.34.
For `CNCC(O)c1ccc(O)cc1` (stereo not drawn) the value was less than 4.34.
Consider `CC(O)(P(=O)([O-])O)P(=O)([O-])O.[Na+].[Na+]`, for which the pIC50 is less than 4.34.
To `O=C2N1[C@]([C@@]([H])2N)([H])SC(C)(C)[C@@H]1[C@@](O)=O` belongs less than 4.34; to `C/14=C(/C[C@H]([C@H]2[C@H]3[C@](CC[C@H]\12)([C@@](C#C)(O)CC3)C)C)CC(CC4)=O`, less than 4.34; to `CCCCCCCCCCCCCCCCOP(=O)([O-])OCC[N+](C)(C)C`, less than 4.34.
To `O=C1[C@@]([C@](CC5)(C)[C@]4([H])C([C@H]5O[C@@H]3[C@H](O[C@H]7[C@H](O)[C@@H](O)[C@H](O)[C@@H]([C@](O)=O)O7)[C@@H](O)[C@H](O)[C@@H]([C@@](O)=O)O3)(C)C)([H])[C@](CC4)(C)[C@@]2(C)C([C@]([C@@]6(C)CC2)([H])C[C@@](CC6)(C)[C@@](O)=O)=C1` belongs less than 4.34; to `O=c1cc(CO)occ1O`, less than 4.34.
To `Clc1ccccc1CN1CCc2sccc2C1` belongs less than 4.34; to `NC1=NC=NC2=C1N=CN2[C@@H]3O[C@H](COP(OP(OC[C@H]4O[C@@H]([N@@+]5=CC=CC(C(N)=O)=C5)[C@H](O)[C@@H]4O)([O-])=O)(O)=O)[C@@H](O)[C@H]3O`, less than 4.34; to `C[C@H]1[C@H]2CC[C@H]3[C@@H]4CC=C5C[C@@H](N(C)C)CC[C@]5(C)[C@H]4CC[C@]23CN1C`, less than 4.34.
Consider `CCOC(=O)C1(c2ccccc2)CCN(CCC(C#N)(c2ccccc2)c2ccccc2)CC1.Cl`, for which the pIC50 was less than 4.34.
To `c1ccc2sc(SNC3CCCCC3)nc2c1` belongs less than 4.34; to `NCCC(O)(P(=O)(O)O)P(=O)(O)O`, less than 4.34.
For `CC(C)NCC(O)c1ccc(O)c(O)c1` (stereo not drawn) the value was less than 4.34; for `CN1C(=O)CC[C@H]1c1cccnc1`, less than 4.34; for `C[N+](C)(C)CCOC(=O)C(O)(c1ccccc1)c1ccccc1.[I-]`, less than 4.34.
For the compound `Nc1ccc(S(=O)(=O)Nc2ccccc2)cc1`, the pIC50 is less than 4.34.
For `O=C1NCN(c2ccccc2)C12CCN(CCCOc1ccc(F)cc1)CC2` the value was less than 4.34; for `CC(C)n1c(/C=C/[C@@H](O)C[C@@H](O)CC(=O)[O-])c(-c2ccc(F)cc2)c2ccccc21.[Na+]`, less than 4.34.
For `NC(=O)NC(=O)Cc1ccccc1` the value was less than 4.34; for `Cc1c(I)c(=O)n(-c2ccccc2)n1C`, less than 4.34.
In turn, `CC(C)(S)[C@@H](N)C(=O)O` had a negative-log IC50 (pIC50) of less than 4.34.
`Nc1ccc(N)cc1`: the pIC50 is less than 4.34.
In turn, `COc1ccccc1OC(=O)Oc1ccccc1OC` had a pIC50 of less than 4.34.
On to `c1ccc(-c2nc[nH]c2-c2ccccc2)cc1`, for which the negative logarithm of the IC50 (pIC50) is less than 4.34.
To `O=C(O)c1cc(-c2ccc(F)cc2F)ccc1O` belongs less than 4.34.
For `Cc1cccc(Nc2ncccc2C(=O)O)c1C`, the pIC50 is less than 4.34.
As to `O=C(O)CP(=O)(O)O`, the pIC50 was less than 4.34.
Take `CCCCCC[C@@H](O)C/C=C\CCCCCCCC(=O)[O-].[K+]`: the pIC50 was less than 4.34.
To `CC(=O)N[C@@H]([C@@H](O)[C@H](O)[C@H](O)CO)[C@@H](O)CC(=O)C(=O)O` belongs less than 4.34; to `CNC(=O)OCC[N+](C)(C)C.[Cl-]`, less than 4.34; to `Nc1ccc(C(=O)[O-])c(O)c1.[Na+]`, less than 4.34.
On to `[NH2][Pt]1([NH2])[O]C(=O)C2(CCC2)C(=O)[O]1`, for which the pIC50 is less than 4.34.
To `O[C@H]1[C@@H]([C@H](O)CO)O[C@H]2[C@@H]1O[C@@H]([C@@](Cl)(Cl)Cl)O2` belongs less than 4.34.
For `O[C@H]([C@@]1=CC=CC=C1)[C@H](C)N(C)C` the value was less than 4.34.
Regarding `N#Cc1ccc2c(c1)N(CCCN1CCC(O)CC1)c1ccccc1S2`, the pIC50 was less than 4.34.
To `C[C@]12CCC(=O)C=C1C=C[C@@H]1[C@@H]2CC[C@@]2(C)[C@H]1CC[C@@]21CCC(=O)O1` belongs less than 4.34.
For `CCN1CC(CCN2CCOCC2)C(c2ccccc2)(c2ccccc2)C1=O.Cl` (stereo not drawn) the value was less than 4.34; for `CCOC(=O)c1ccccc1C(=O)OCC`, less than 4.34.
For `CCCCCl` the value was less than 4.34.
`Cc1c(C)n(CCN(C)C)c2ccc(C(=O)OCCN(C)C)cc12` showed a pIC50 of less than 4.34.
In the case of `CCNC(=O)NCc1cccc(Cl)c1`, the pIC50 was less than 4.34.
